# Reference: patent publication US20230055441A1 (NONO INC., priority 2020, published 2023)
# “Also recorded” adds a separate entry of the source. Read-outs that look alike come from different tables or passages of the source. Square brackets hold non-standard residues; d marks the D form. Ends that are not written are not given here. Peptide text beside a SMILES is read from it.
# Key:
# plasmin [1] = target: T1, plasmin (Homo sapiens, UniProt P00747); type: in vitro ADME
# T1 construct: NA-1 was digested with plasmin
# T1 sequence (P00747 581-810 limits assumed, species assumed): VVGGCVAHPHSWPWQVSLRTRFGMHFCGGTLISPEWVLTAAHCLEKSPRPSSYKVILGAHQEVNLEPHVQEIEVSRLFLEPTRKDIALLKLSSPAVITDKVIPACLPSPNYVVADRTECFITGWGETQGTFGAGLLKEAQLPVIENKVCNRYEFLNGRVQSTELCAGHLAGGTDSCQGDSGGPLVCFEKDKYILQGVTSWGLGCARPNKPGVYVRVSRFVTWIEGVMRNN
# T1 sequence (P00747 97-580 limits assumed, species assumed): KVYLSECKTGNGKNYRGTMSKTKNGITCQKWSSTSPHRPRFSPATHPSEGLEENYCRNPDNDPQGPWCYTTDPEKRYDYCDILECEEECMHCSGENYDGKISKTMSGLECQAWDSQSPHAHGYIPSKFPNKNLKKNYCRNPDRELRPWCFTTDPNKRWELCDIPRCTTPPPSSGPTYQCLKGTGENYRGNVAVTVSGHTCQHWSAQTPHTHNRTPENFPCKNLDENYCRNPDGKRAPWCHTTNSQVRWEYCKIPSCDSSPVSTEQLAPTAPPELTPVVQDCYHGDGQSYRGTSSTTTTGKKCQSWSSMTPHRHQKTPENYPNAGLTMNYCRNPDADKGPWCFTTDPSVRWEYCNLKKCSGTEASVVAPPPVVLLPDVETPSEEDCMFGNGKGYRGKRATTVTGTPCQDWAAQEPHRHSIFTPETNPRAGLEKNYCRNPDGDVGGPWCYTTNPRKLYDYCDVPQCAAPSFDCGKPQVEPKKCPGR
# PSD95PDZ2 = PSD95PDZ2 (Homo sapiens, UniProt P78352); experiment: Competitive ELISA with biotinylated-NA-1 on coated PSD95PDZ2; type: binding; conditions: for EC50 compared among NA-1, D-Tat-L-2B9C and D-NA-1: FIG. 12
# Sequence of PSD95PDZ2 (P78352 160-246 limits assumed): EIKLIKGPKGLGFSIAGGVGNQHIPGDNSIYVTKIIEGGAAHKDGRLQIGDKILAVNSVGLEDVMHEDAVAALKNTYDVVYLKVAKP
# Procedure: Binding was evaluated with a competitive ELISA assay. A plate was coated with 1 ug/ml PSD95PDZ2 in 50 mM bicarbonate buffer overnight at 4C. The plate was blocked in 2% BSA in PBST (0.05%) for 2 h at room temperature. […] The wells were washed again, and then incubated with TMB solution for 10 min. The reaction was stopped with 100 ul H2SO4. Absorbance was determined at 450 nm with the synergy H1 reader.
# rt-PA [2] = system: rt-PA
# tPA = tPA (Homo sapiens, UniProt P00750)
# Sequence of tPA (P00750 36-562): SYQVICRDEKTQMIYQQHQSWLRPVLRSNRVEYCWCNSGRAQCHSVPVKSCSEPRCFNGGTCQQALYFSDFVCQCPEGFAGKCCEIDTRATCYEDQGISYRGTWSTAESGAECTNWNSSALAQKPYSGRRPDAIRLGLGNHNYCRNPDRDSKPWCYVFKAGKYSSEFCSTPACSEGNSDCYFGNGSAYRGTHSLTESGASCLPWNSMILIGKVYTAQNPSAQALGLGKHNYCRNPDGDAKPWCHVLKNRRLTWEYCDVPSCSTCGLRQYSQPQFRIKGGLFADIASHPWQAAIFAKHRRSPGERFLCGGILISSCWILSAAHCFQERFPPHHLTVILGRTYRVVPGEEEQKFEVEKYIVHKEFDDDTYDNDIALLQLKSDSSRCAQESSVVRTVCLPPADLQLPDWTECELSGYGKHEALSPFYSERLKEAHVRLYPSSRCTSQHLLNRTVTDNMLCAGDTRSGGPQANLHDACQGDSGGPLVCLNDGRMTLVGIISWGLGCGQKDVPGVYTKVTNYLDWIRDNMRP
# [3] = rat, in vivo, 25 mg/kg
# Procedure: (§1) Rats were anaesthetized in the supine position (Isoflurane 1.5-%) and allowed to breath spontaneously in 0.5 L/min 02. The left femoral artery was cannulated for blood sampling.
# (§2) Test agents were prepared at the stablish concentration in a total volume of vehicle. Pulmonary instillation was performed by intubation with a 14G catheter connected to a 1 cc syringe and the test agent will be delivered through the catheter. Subcutaneous (SQ or SC) injection was injected into the area of the left flank, no more than 2 ml of total volume per site.
# (§3) Each dose was evaluated in 3 rats for each administration strategy. […] For the first experiment, evaluating two different administration routes (SQ and PI), blood samples were collected at 8 different timepoints: Pre and at 7 additional times (1, 2.5, 5, 10, 15, 30, 60 min) post dose (250 ul/sample). For the 24-hour PK curve experiment, blood samples were collected at 11 timepoints: Pre, 2.5, 5, 10, 15, 30, 60 min, 3 hr, 6 hr, 12 hr and 24 hr.
# (§4) HPLC quantification: Plasma was separated from blood and stored at −80° C. until used. Each sample was precipitated by adding 1M HCl (10 ul/100 ul sample) at >80° C., centrifuged (12,000 rpm×15 min) and the precipitate collected. A 5 cm C—18 RP-HPLC column was equilibrated with 10% acetonitrile with 0.1% TFA at 40° C., the sample was injected and run in an Agilent 1260 Infinity Quaternary LC System. (30 min at 1.5 mL/min; gradient from 10% to 35% acetonitrile in 0.1% TFA; Absorbance detected at 220 nm). Standard curves for HPLC were generated from plasma samples spiked with known quantities of test agent.
# histamine = conditions: rat, in vivo, iv, 7.6 mg/kg
# Procedure: Blood samples were collected at 11 timepoints: Pre, 2.5, 5, 10, 15, 30, 60 min, 3 hr, 6 hr, 12 hr and 24 hr. Histamine levels were quantified by using commercially available histamine ELISA assay kit (Histamine ELISA-H1531-K01, Eagle Bioscience). The plates were coated with the plasma samples (50 ul/well) incubated for 60 minutes at room temperature on an orbital shaker with medium frequency. Then 100 ul of enzyme conjugate was added to the wells and incubated for 20 minutes at room temperature. Samples were washed again, and then incubated for 25 minutes at room temperature with TMB solution. The reaction was stopped with 100 ul H2SO4. Absorbance was determined on an ELISA plate reader at 450 nm.
# Blood samples were taken at pre-injection and at 0, 1, 2.5, 5, 10, 15, 30- and 60-minutes post dose and used for histamine levels quantification using commercially available kit.
# plasmin [4] = target: T1, plasmin; type: in vitro ADME; remark: listed apart in the source
# Text: Plasmin is a serum protease induced by thrombolytic agents, such as tPA. Plasmin cleavage sites can occur on the C-terminal side of basic amino acids residues in a peptide formed of L-amino acids. NA-1 was digested with plasmin and the products analyzed by mass spectrometry. […] However, cleavage at the other two sites may occur to a lesser extent.
# [5] = NA-1 plasma levels after administering NA-1 and tPA to rats; parameters: species or system rat; conditions: rats in vivo, rt-PA 5.4 mg/kg, versus NA-1 alone
# NMDAR2B:PSD-95 complexes = target: T2, NMDAR2B:PSD-95 complexes (Rattus norvegicus, UniProt P31016); experiment: Dissociation of NMDAR2B:PSD-95 complexes in three pial vessel model (3PVo), immunoprecipitation and Western blotting; type: in vivo, Sprague-Dawley rats; conditions: 7.6 mg/kg 1 hr after stroke onset, brains harvested 2 h after onset, rat 3PVo
# T2 construct: Cortical stroke areas were collected for analysis; from tissue; host or cells: rat brain, cortical stroke area, after in vivo dosing
# T2 sequence (P31016 whole entry, one chain of several): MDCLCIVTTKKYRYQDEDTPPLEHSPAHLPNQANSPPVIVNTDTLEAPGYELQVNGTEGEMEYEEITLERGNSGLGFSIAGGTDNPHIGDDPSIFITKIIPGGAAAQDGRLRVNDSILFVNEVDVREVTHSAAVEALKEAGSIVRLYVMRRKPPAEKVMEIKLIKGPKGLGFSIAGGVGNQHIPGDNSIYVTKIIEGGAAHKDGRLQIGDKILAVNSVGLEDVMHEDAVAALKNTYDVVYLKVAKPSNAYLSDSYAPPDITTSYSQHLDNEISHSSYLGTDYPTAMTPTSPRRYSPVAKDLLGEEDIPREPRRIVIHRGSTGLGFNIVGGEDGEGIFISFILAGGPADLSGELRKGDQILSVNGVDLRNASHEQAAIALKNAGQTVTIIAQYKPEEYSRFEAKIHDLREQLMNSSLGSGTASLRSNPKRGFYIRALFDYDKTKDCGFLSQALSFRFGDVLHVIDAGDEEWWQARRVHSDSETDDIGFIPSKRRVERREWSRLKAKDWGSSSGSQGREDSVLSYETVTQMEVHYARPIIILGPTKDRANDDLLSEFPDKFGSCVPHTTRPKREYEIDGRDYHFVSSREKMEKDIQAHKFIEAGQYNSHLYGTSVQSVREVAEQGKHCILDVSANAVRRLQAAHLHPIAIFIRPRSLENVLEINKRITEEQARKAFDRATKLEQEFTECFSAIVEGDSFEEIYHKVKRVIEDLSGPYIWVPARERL
# Procedure: Sprague-Dawley rats were subject to three pial vessel model (3PVo). […] Brains were harvested 2 h after stroke onsets. Cortical stroke areas were collected for analysis. Immunoprecipitations were performed with anti-PSD-95 or anti-NMDAR2B. The amount of PSD-95 and NMDAR2B in samples was analyzed by Western blotting. Reduction in PSD-95-NMDAR2B complex formation was assessed by fold decrease of placebo versus treatment.
# [6] = system: embolic MCA occlusion model; experiment: Embolic MCA occlusion model (eMCAo); type: in vivo
# [7] = system: 3-pial vessel occlusion model of stroke; conditions: for infarct volume: versus placebo
# Procedure: Treatments were administered subcutaneously as a bolus injection, 60 minutes after the onset of stroke. […] Data is presented as mean±SD, N=10/group. The asterisk (*) represents statistical significance when compared to Placebo (ANOVA, with a Tukey's post-hoc analysis, *P<0.0332, **P<0.0021, ***P<0.0002 and ****P<0.0001).
# [8] = Plasma concentrations 15 minutes after subcutaneous dose in rats of the 3-pial vessel occlusion study; type: in vivo; conditions: rat, single subcutaneous administration 25, 7.6, 2.5 mg/kg
# Procedure: Unlike transient models of stroke in rats where much lower doses are required for neuroprotection, neuroprotection in 3 pial vessel occlusion models of stroke seems to require plasma concentrations of nerinetide at or above 2 ug/mL (or molar equivalent). […] Although the plasma levels continue to increase through about 3 hours then decrease, it is important to achieve rapid accumulation in the blood and brain for emergency indications like stroke. […] For pharmacokinetic sample analysis, calibration standard samples at concentrations of 0, 2.5, 5, 10, 15, 20 and 40 ug/mL of nerinetide were prepared by spiking 1 μL of the appropriate stock to 100 μL of plasma. […] Data is presented as mean±SD.
# [9] = 2.6 mg/kg dose; cited from earlier work
# rt-PA [10] = experiment: Degradation in rat plasma in vitro with rt-PA
# rt-PA [11] = experiment: Degradation in human plasma in vitro with rt-PA; conditions: given simultaneously with rt-PA (tPA)
# [12] = system: TNK-tissue plasminogen activator; experiment: Degradation in rat plasma with TNK-tissue plasminogen activator; conditions: given simultaneously with TNK
# Text: (§5) The experiment was repeated using TNK-tissue plasminogen activator in place of tPA.
# [13] = system: TNK-tissue plasminogen activator; experiment: Degradation in human plasma with TNK-tissue plasminogen activator; conditions: given simultaneously with TNK
# Text: as §5
# [14] = Pharmacokinetic analysis in rats by route (subcutaneous, pulmonary instillation, intramuscular, intravenous); conditions: rat
# Procedure: as §1, §2, §3, §4
# [15] = without tPA, 7.6 mg/kg IV bolus 1 hour after stroke onset
# [16] = intramuscular versus intravenous
molecule,measurement,setting,value
CC[C@H](C)[C@H](NC(=O)[C@H](CO)NC(=O)[C@H](CO)NC(=O)[C@H](CC(C)C)NC(=O)[C@H](CCCCN)NC(=O)[C@@H](CCCNC(=N)N)NC(=O)[C@@H](CCCNC(=N)N)NC(=O)[C@@H](CCCNC(=N)N)NC(=O)[C@@H](CCC(N)=O)NC(=O)[C@@H](CCCNC(=N)N)NC(=O)[C@@H](CCCNC(=N)N)NC(=O)[C@@H](CCCCN)NC(=O)[C@@H](CCCCN)NC(=O)[C@@H](CCCNC(=N)N)NC(=O)CNC(=O)[C@H](N)Cc1ccc(O)cc1)C(=O)N[C@@H](CCC(=O)O)C(=O)N[C@@H](CO)C(=O)N[C@@H](CC(=O)O)C(=O)N[C@H](C(=O)O)C(C)C [D-TAT-L-2B9c] (H-[dY]G[dR][dK][dK][dR][dR][dQ][dR][dR][dR]KLSSIESDV-OH; N-terminus and C-terminus assumed),degradation by plasmin in PBS,plasmin [1],resistant to plasmin cleavage
same,IC50,PSD95PDZ2,< 5 µM
same,"EC50 compared among NA-1, D-Tat-L-2B9C and D-NA-1",PSD95PDZ2,about the same within experimental error
same,peptide content / degradation in human plasma with rt-PA,rt-PA [2],resistant to proteolysis
same,degradation by tPA or TNK in PBS without plasma,tPA,no degradation
same,"AUC / plasma exposure, subcutaneous",[3],also increased Cmax and AUC relative to subcutaneous NA-1 but not to the same extent
same,"Cmax, subcutaneous",[3],also increased Cmax and AUC relative to subcutaneous NA-1 but not to the same extent
same,histamine release,histamine,did result in significant histamine release
YGRKKRRQRRRKLSSIESDV [NA-1],plasmin cleavage sites,plasmin [4],cleavage at seven of nine potential sites
same,AUC when administered simultaneously with rt-PA,[5],significantly reduced
same,Cmax when administered simultaneously with rt-PA,[5],significantly reduced
same,degradation by plasmin in PBS,plasmin [1],rapidly degraded
same,dissociation of preformed NMDAR2B:PSD-95 complexes,NMDAR2B:PSD-95 complexes,able to dissociate preformed NMDAR2B:PSD-95 complexes
same,"EC50 compared among NA-1, D-Tat-L-2B9C and D-NA-1",PSD95PDZ2,about the same within experimental error
same,binding to PSD-95 PDZ2 domain,PSD95PDZ2; competitive ELISA,high binding affinity
same,infarction volume,"[6]; tPA co-administered (rt-PA 5.4 mg/kg), 7.6 mg/kg IV 1 hour after stroke onset",reducing its effect
same,infarction volume,[6]; [15],significantly reduced infarction volume and right hemisphere swelling
same,right hemisphere swelling,[6]; [15],significantly reduced infarction volume and right hemisphere swelling
same,infarct volume,[7]; 7.6 mg/kg subcutaneous bolus 60 minutes after onset of stroke,failed to achieved infarct volume reduction
same,infarct volume,[7]; 25 mg/kg subcutaneous bolus 60 minutes after onset of stroke,significant reduction in infarct volume
same,plasma concentration required for neuroprotection,"[7]; rat, in vivo",≥ 2000 ng/mL
same,dose proportionality between treatment dose and Cmax,[8],dose proportionality
same,effective plasma concentration in human studies,[9],~10 µg/mL
same,peptide content / degradation in rat plasma with rt-PA,rt-PA [10]; given simultaneously with rt-PA (tPA),decayed much more rapidly when tPA was co-administered; also recorded: significantly reduced
same,time to decay to zero with tPA,rt-PA [10]; treated with tPA,≤ 15 min
same,peptide content / degradation in human plasma with rt-PA,rt-PA [11],decayed much more rapidly when tPA was co-administered; also recorded: significantly reduced
same,peptide content / degradation in rat plasma with TNK,[12],rapid degradation; also recorded: reduced
same,peptide content / degradation in human plasma with TNK,[13],rapid degradation; also recorded: reduced
same,"AUC, intramuscular",[14]; [16],somewhat higher AUC
same,"Cmax, intramuscular",[14]; [16],lower CMax
same,"half-life, intramuscular",[14]; [16],higher half-life
same,"half-life, subcutaneous",[14]; subcutaneous versus same dose intravenous NA-1,longer half-life
same,"Cmax, subcutaneous","[14]; subcutaneous, 25 mg/kg (Table 4), NA-1 versus IV NA-1, others versus subcutaneous NA-1",much lower CMax
same,"AUC / plasma exposure, subcutaneous","[14]; subcutaneous, 25 mg/kg (Table 4), NA-1 versus IV NA-1, others versus subcutaneous NA-1, 25 mg/kg",somewhat lower AUC
